# Marks after values point to notes of the source that are not given here.
# B1: FPSV (peptide)
# peptide: FPSV
# B2: WPDGR (peptide)
# peptide: WPDGR
# B3: FPFP (peptide)
# peptide: FPFP
# B4: KGFP (peptide)
# peptide: KGFP
# Assays:
# xanthine oxidase (XO) [1] = biological target: T1, xanthine oxidase (XO) (Bos taurus, UniProt P80457); experiment: Reversibility and type of XO inhibition (v vs enzyme plots; Lineweaver-Burk plots); format: biochemical; conditions: for type of XO inhibition: Lineweaver-Burk, peptide 0 and 5 mM, XO 0.05 U/mL, xanthine 0-0.4 mM, Km increased, Vmax decreased; for reversibility of XO inhibition: inhibitor 0, 5, 10 and 20 mM, XO 0 to 0.1 U/mL, xanthine 0.4 mM, 37 °C 30 min, pH 7.5
# T1 construct: purchased Sigma Chemical Co. (St. Louis, MO, USA)
# Description: The plots of ν (ΔOD290nm/min) versus the XO (U/mL) at different concentrations of the inhibitors (peptides) were constructed to determine the reversibility of inhibitory behavior on XO [29]. All samples were dissolved in 20 mM sodium carbonate buffer (pH 7.5). Inhibitor solution (0, 5, 10 and 20 mM) and XO solution (from 0 to 0.1 U/mL) were mixed and incubated at 37 °C for 30 min, and the concentration of the substrate xanthine was kept constant at 0.4 mM. The absorbance at 290 nm was then determined. ν is the initial enzymatic reaction rate of the reaction, which was investigated using the same method for the XO inhibitory activity assay.
# The type of the inhibition of XO activity by the inhibitors (peptides) was investigated using Lineweaver and Burk kinetic analysis. It was performed via evaluating the initial rate of reaction in the presence and absence of inhibitors at different xanthine concentration. Briefly, the peptide (0 and 5 mM) and XO (0.05 U/mL) were mixed and incubated in the buffer (20 mM sodium carbonate buffer, pH 7.5) for 30 min at 37 °C. Subsequently, different xanthine concentrations (0, 0.05, 0.1, 0.2 and 0.4 mM) were successively added into the solutions. Then, the dynamic changes of the absorbance at 290 nm were recorded, and ν was calculated using the same method above. Km and Vmax values, as corresponding kinetic parameters, were obtained from the Lineweaver and Burk double reciprocal plots.
# xanthine oxidase (XO) [2] = biological target: T1, xanthine oxidase (XO); experiment: XO inhibitory activity assay (rate of uric acid formation, absorbance 290 nm); format: biochemical; conditions: peptide 5 mM; XO 0.05 U/mL, pre-incubation 37 °C 30 min, xanthine 0.42 mM, 20 mM sodium carbonate buffer pH 7.5, 290 nm; each sample tested three times
# Description: The XO inhibitory activity was measured by quantifying the rate of uric acid produced in the enzyme-catalyzed reaction. All samples were dissolved in 20 mM sodium carbonate buffer at pH 7.5. […] During the reaction, the dynamic changes of the absorbance of the sample were continuously recorded at 290 nm. Each sample was tested three times. The XO inhibitory activity was calculated using the following formula:Inhibition (%) = (V1 − V2)/V1 × 100%(1) where V1 is the initial enzymatic reaction rate of the blank group, V2 is the initial enzymatic reaction rate of sample group.
# xanthine oxidase (XO) [3] = biological target: T1, xanthine oxidase (XO); experiment: Fluorescence quenching of XO (Stern-Volmer analysis); format: binding; conditions: for Kq (quenching rate constant) / Ksv (Stern-Volmer quenching constant): T 298 K; for Kq (quenching rate constant): Kq = Ksv/τ0, τ0 approximately 10^−8 s; for Ksv (Stern-Volmer quenching constant): XO 0.05 U/mL, peptide 0 to 20.0 × 10^−4 M, excitation 280 nm; for fluorescence quenching mechanism of XO: from Kq versus the collisional quenching threshold
# Description: Fluorescence spectra were measured on an F-7000 Spectrofluorimeter (Hitachi Ltd., Ibaraki, Japan) with a 1.0 cm quartz cell and a thermostatic bath. Briefly, 2 mL XO (0.05 U/mL) was titrated by continuous addition of peptides solution (to final concentrations ranging from 0 to 20.0 × 10^−4 M). Then, the obtained mixture was properly mixed and equilibrated for 5 min. The slit widths for excitation and emission were set to 2.5 nm. The fluorescence emission spectra were then measured in the emission wavelength range from 300 to 500 nm, under 280 nm excitation wavelengths. The following Stern-Volmer equation was used to analyze the fluorescence quenching:F0/F = 1 + Ksv [C] = 1 + Kq τ0 [C](3) where F0 and F represent the steady-state fluorescence intensities in the absence and presence of quencher, respectively. Ksv is the Stern-Volmer quenching constant. [C] is the quencher concentration. Kq is the quenching rate constant of biomolecule. Kq = Ksv/τ0, τ0 is the average lifetime of biomolecule in the absence of quencher and its value is approximately 10^−8 s. Ksv used to be estimated by linear regression plot slope of F0/F versus.
# Xanthine oxidase [4] = biological target: Xanthine oxidase (UniProt P80457); experiment: other fluorescence titration; quenching of the intrinsic fluorescence of XO (2 mL, 0.05 U/mL) titrated with peptide to 0-20.0 x 10^-4 M; equilibrated 5 min; excitation 280 nm, emission 300-500 nm; 298 K; Stern-Volmer analysis
# Xanthine oxidase [5] = biological target: Xanthine oxidase (UniProt P80457)
# T1 sequence (P80457 whole entry): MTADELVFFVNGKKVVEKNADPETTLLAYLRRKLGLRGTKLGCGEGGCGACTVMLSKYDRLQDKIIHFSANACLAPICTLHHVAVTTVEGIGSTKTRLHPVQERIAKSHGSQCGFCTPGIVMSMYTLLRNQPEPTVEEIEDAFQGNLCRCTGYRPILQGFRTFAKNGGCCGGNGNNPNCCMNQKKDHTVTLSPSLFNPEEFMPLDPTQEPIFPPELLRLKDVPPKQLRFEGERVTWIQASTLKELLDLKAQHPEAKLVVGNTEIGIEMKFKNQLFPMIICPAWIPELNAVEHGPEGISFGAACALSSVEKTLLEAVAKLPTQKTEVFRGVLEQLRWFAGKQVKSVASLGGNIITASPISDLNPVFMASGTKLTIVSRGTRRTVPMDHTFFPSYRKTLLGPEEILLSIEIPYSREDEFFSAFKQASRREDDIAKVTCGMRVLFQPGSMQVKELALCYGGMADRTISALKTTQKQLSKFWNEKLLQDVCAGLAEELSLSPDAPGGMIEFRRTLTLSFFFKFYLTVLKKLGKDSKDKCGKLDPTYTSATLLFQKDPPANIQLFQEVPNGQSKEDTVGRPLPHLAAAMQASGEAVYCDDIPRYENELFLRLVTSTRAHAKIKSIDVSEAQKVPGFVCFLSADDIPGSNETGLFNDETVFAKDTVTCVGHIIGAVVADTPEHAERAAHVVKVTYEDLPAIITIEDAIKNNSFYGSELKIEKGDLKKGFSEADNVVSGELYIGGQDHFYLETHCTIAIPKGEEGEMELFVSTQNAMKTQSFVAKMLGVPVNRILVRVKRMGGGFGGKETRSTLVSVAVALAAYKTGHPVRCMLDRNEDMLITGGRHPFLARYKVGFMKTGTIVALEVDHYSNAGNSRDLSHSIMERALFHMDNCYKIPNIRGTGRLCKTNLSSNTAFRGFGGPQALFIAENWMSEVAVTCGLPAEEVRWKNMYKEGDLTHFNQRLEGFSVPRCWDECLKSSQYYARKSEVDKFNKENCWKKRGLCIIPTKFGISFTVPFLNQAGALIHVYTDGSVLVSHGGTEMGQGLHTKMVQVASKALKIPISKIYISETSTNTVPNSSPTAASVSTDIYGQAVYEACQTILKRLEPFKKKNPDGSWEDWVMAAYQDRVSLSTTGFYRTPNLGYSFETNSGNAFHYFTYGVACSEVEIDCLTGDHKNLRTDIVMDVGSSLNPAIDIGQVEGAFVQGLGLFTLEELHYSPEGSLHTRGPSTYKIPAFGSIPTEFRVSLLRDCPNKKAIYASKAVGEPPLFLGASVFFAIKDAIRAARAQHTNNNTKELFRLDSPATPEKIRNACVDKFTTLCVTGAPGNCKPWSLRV
# Xanthine oxidase, sequence (P80457 2-1332): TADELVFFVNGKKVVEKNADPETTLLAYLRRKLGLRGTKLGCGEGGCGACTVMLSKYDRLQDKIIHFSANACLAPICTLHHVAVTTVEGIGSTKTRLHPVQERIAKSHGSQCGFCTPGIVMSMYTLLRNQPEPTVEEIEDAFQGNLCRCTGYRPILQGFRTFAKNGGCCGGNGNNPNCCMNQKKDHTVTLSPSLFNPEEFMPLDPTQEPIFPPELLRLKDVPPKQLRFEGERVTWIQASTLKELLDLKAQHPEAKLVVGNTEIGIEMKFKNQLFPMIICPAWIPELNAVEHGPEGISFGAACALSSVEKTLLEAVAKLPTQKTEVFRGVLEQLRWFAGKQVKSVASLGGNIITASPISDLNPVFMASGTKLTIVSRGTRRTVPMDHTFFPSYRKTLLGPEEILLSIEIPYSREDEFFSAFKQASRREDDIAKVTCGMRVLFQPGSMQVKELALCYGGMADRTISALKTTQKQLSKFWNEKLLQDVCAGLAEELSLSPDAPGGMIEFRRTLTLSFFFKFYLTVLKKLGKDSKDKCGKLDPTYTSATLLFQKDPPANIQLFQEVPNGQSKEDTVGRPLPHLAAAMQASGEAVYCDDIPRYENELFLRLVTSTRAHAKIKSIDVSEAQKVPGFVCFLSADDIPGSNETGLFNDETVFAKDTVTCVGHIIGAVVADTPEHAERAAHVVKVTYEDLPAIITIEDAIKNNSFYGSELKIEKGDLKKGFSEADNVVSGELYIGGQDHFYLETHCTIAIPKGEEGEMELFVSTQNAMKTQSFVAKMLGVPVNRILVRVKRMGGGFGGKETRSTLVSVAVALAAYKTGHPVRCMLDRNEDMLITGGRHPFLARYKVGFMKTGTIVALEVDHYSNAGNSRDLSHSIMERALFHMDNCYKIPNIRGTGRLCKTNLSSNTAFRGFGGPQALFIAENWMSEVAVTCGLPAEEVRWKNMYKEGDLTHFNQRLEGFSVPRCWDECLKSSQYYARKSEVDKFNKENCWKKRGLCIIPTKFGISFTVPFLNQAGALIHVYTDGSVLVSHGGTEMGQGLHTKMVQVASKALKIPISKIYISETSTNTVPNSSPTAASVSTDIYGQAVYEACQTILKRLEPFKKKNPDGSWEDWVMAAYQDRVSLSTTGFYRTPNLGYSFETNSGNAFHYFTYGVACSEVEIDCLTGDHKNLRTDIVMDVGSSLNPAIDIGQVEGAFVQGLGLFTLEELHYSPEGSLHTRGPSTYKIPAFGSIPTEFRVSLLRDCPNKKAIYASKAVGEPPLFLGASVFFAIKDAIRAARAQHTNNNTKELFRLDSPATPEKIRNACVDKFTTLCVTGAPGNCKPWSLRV
molecule,measurement,setting,value
"FPFP [tetrapeptide identified from round scad hydrolysate fraction F2, chemically synthesized]",type of XO inhibition,xanthine oxidase (XO) [1],mixed inhibitor
same,reversibility of XO inhibition,xanthine oxidase (XO) [1],reversible
same,XO Inhibitory Activity (%),xanthine oxidase (XO) [2],20.09 ± 2.41 ^a %
same,Kq (quenching rate constant),xanthine oxidase (XO) [3],5.608e+11 M⁻¹ s⁻¹
same,Ksv (Stern-Volmer quenching constant),xanthine oxidase (XO) [3],5608 M⁻¹
same,fluorescence quenching mechanism of XO,xanthine oxidase (XO) [3],static
"FPSV [tetrapeptide identified from round scad hydrolysate fraction F2, chemically synthesized]",type of XO inhibition,xanthine oxidase (XO) [1],mixed inhibitor
same,reversibility of XO inhibition,xanthine oxidase (XO) [1],reversible
same,XO Inhibitory Activity (%),xanthine oxidase (XO) [2],22.61 ± 1.81 ^a %
same,Kq (quenching rate constant),xanthine oxidase (XO) [3],5.42e+10 M⁻¹ s⁻¹
same,Ksv (Stern-Volmer quenching constant),xanthine oxidase (XO) [3],542 M⁻¹
same,fluorescence quenching mechanism of XO,xanthine oxidase (XO) [3],static
"KGFP [tetrapeptide identified from round scad hydrolysate fraction F2, chemically synthesized]",XO Inhibitory Activity (%),xanthine oxidase (XO) [2],5.43 ± 0.20 ^c %
"WPDGR [pentapeptide identified from round scad hydrolysate fraction F2, chemically synthesized]",XO Inhibitory Activity (%),xanthine oxidase (XO) [2],16.21 ± 0.78 ^b %
B1,Kq (quenching rate constant),Xanthine oxidase [4],5.42e+10 M⁻¹ s⁻¹
same,Ksv (Stern-Volmer quenching constant),Xanthine oxidase [4],542 M⁻¹
same,"XO inhibitory activity (%) at 5 mM peptide (rate of uric acid formation, absorbance at 290 nm)",Xanthine oxidase [5],22.6%
B2,"XO inhibitory activity (%) at 5 mM peptide (rate of uric acid formation, absorbance at 290 nm)",Xanthine oxidase [5],16.2%
B3,Kq (quenching rate constant),Xanthine oxidase [4],5.61e+11 M⁻¹ s⁻¹
same,Ksv (Stern-Volmer quenching constant),Xanthine oxidase [4],5610 M⁻¹
same,"XO inhibitory activity (%) at 5 mM peptide (rate of uric acid formation, absorbance at 290 nm)",Xanthine oxidase [5],20.1%
B4,"XO inhibitory activity (%) at 5 mM peptide (rate of uric acid formation, absorbance at 290 nm)",Xanthine oxidase [5],5.43%
